What was measured:
Experiment in all cases: normalised viability (% of control), CellTiter-Blue; higher = more viable cells (about 100 = DMSO control)
Settings in all cases: incubation time: 72 h
BT-549 = system: BT-549
In short: (§1)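 Normalised viability is given for a single listed concentration of the series. In 384-well plates, breast cancer cell lines were incubated 72 h with compound, then read with CellTiter-Blue (2 h, 37 °C) at 560/590 nm. Per-plate scaling set vehicle to 100 and a positive kill control to 0, with Z'-factor quality control.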

MFM-223 = system: MFM-223
In short: as §1

MDA-MB-231 = system: MDA-MB-231
In short: as §1

CAL-148 = system: CAL-148
In short: as §1

DU-4475 = system: DU-4475
In short: as §1

SK-BR-3 = system: SK-BR-3
In short: as §1

HDQ-P1 = system: HDQ-P1
In short: as §1

CAL-51 = system: CAL-51
In short: as §1

CAL-85-1 = system: CAL-85-1
In short: as §1

MDA-MB-468 = system: MDA-MB-468
In short: as §1

BT-474 = system: BT-474
In short: as §1

MDA-MB-436 = system: MDA-MB-436
In short: as §1

Hs578T = system: Hs578T
In short: as §1

HCC1143 = system: HCC1143
In short: as §1

MDA-MB-453 = system: MDA-MB-453
In short: as §1

HCC1937 = system: HCC1937
In short: as §1

C=CC(=O)N1CCC[C@@H](n2nc(-c3ccc(Oc4ccccc4)cc3)c3c(N)ncnc32)C1
normalised viability [%]
Settings | 0.3 nM | 1 nM | 3 nM | 10 nM | 100 nM | 1000 nM
BT-474 | – | 124 | – | – | 45.9 | 42.1
BT-549 | – | 96.6 | – | – | 109 | 118
CAL-51 | 95.9 | – | 91 | 94.3 | – | –
CAL-85-1 | 87.8 | – | 84.6 | 96.9 | – | –
CAL-148 | 85.8 | – | 98.6 | 96.3 | – | –
DU-4475 | 91.8 | – | 87.4 | 86.8 | – | –
HCC1143 | – | 76 | – | – | 79 | 81.8
HCC1937 | – | 94.8 | – | – | 101 | 89.7
HDQ-P1 | 130 | – | 106 | 105 | – | –
Hs578T | – | 123 | – | – | 123 | 112
MDA-MB-231 | – | 102 | – | – | 101 | 111
MDA-MB-436 | – | 106 | – | – | 85.8 | 94.8
MDA-MB-453 | 112 | – | 92.4 | 77.3 | – | –
MDA-MB-468 | – | 99.9 | – | – | 78.3 | 69.3
MFM-223 | – | 92.1 | – | – | 83 | 56.6
SK-BR-3 | – | 91.9 | – | – | 24.9 | 21.7

CC(=O)Nc1cccc(-n2c(=O)n(C3CC3)c(=O)c3c(Nc4ccc(I)cc4F)n(C)c(=O)c(C)c32)c1
normalised viability [%]
Settings | 0.075 nM | 0.25 nM | 0.75 nM | 2.5 nM | 25 nM | 250 nM
BT-474 | – | 118 | – | – | 111 | 122
BT-549 | – | 87.6 | – | – | 92.3 | 86.2
CAL-51 | 103 | – | 89.4 | 84.4 | – | –
CAL-85-1 | 102 | – | 93.6 | 97 | – | –
CAL-148 | 107 | – | 96.2 | 96.6 | – | –
DU-4475 | 117 | – | 59.7 | 10.8 | – | –
HCC1143 | – | 124 | – | – | 71 | 64.6
HCC1937 | – | 132 | – | – | 112 | 89.2
HDQ-P1 | 112 | – | 98.3 | 99.3 | – | –
Hs578T | – | 129 | – | – | 84.8 | 83
MDA-MB-231 | – | 101 | – | – | 39.6 | 38.7
MDA-MB-436 | – | 104 | – | – | 97.8 | 95
MDA-MB-453 | 107 | – | 113 | 128 | – | –
MDA-MB-468 | – | 110 | – | – | 92.6 | 74.7
MFM-223 | – | 98.8 | – | – | 84.5 | 64.4
SK-BR-3 | – | 111 | – | – | 111 | 97.7

Cc1cnc(NC(=O)Nc2cc(Br)c(C)cc2OC[C@@H]2CNCCO2)cn1
normalised viability [%]
Settings | 0.3 nM | 1 nM | 3 nM | 10 nM | 100 nM | 1000 nM
BT-474 | – | 102 | – | – | 107 | 107
BT-549 | – | 90.9 | – | – | 96 | 92
CAL-51 | 97.8 | – | 85.7 | 93.1 | – | –
CAL-85-1 | 90.6 | – | 89.4 | 106 | – | –
CAL-148 | 99.2 | – | 90 | 96.3 | – | –
DU-4475 | 116 | – | 94.6 | 106 | – | –
HCC1143 | – | 97.9 | – | – | 90 | 79.3
HCC1937 | – | 108 | – | – | 80.7 | 50.6
HDQ-P1 | 104 | – | 88.4 | 68.7 | – | –
Hs578T | – | 92.6 | – | – | 102 | 35
MDA-MB-231 | – | 106 | – | – | 103 | 94
MDA-MB-436 | – | 104 | – | – | 83.4 | 67.8
MDA-MB-453 | 109 | – | 111 | 105 | – | –
MDA-MB-468 | – | 106 | – | – | 110 | 56.6
MFM-223 | – | 104 | – | – | 98.8 | 79.5
SK-BR-3 | – | 98.9 | – | – | 101 | 30.1

NCCCNCCSP(=O)(O)O [Amifostine]
normalised viability [%]
Settings | 3 nM | 10 nM | 30 nM | 100 nM | 1000 nM | 10000 nM
BT-474 | – | 94.2 | – | – | 94.5 | 111
BT-549 | – | 81.4 | – | – | 96.6 | 93.3
CAL-51 | 113 | – | 106 | 107 | – | –
CAL-85-1 | 97.5 | – | 88 | 87.2 | – | –
CAL-148 | 97.6 | – | 93.9 | 96.5 | – | –
DU-4475 | 85.9 | – | 93.9 | 86.4 | – | –
HCC1143 | – | 79.2 | – | – | 84 | 75.2
HCC1937 | – | 79.2 | – | – | 95 | 89.5
HDQ-P1 | 101 | – | 95.5 | 84.8 | – | –
Hs578T | – | 101 | – | – | 104 | 95.6
MDA-MB-231 | – | 86.7 | – | – | 101 | 86.5
MDA-MB-436 | – | 135 | – | – | 91.8 | 86.2
MDA-MB-453 | 102 | – | 81 | 86.7 | – | –
MDA-MB-468 | – | 102 | – | – | 93 | 91.3
MFM-223 | – | 81.8 | – | – | 82.1 | 96.4
SK-BR-3 | – | 81.9 | – | – | 92.6 | 93.3

Source: the supplement of paper PMC4862054
